Measurements published in PubChem BioAssay AID1963853 (Molecular Pharmacology Branch, DTP, NCI, 2024).

Test system: 266295-075-R-J1-PDC spheroid viability
Assay: Anticancer human tumor 266295-075-R-J1-PDC patient-derived head and neck squamous carcinoma cell line growth inhibition [POLQ]
Details: spheroids with HUVEC and MSC; for IC50: curve of first compound; for viability, T/C: stronger effect = lower value
Method in brief: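 Complex spheroid viability model combining PDC tumour cells with endothelial (HUVEC) and MSC stromal cells. Novobiocin, ART-558 or RP6685 were tested singly and in combination with standard and investigational anticancer drugs. Each was titrated in half-log steps from near clinical Cmax, or from 10 microM where Cmax was unknown.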

[1] = second compound 0.0316 µM, first compound 0.0316 µM
[2] = second compound 0.0316 µM, first compound 0.1 µM
[3] = second compound 0.0316 µM, first compound 0.316 µM
[4] = second compound 0.0316 µM, first compound 1 µM
[5] = second compound 0.0316 µM, first compound 3.16 µM
[6] = second compound 0.0316 µM, first compound 10 µM
[7] = second compound 0.1 µM, first compound 0.0316 µM
[8] = second compound 0.1 µM, first compound 0.1 µM
[9] = second compound 0.1 µM, first compound 0.316 µM
[10] = second compound 0.1 µM, first compound 1 µM
[11] = second compound 0.1 µM, first compound 3.16 µM
[12] = second compound 0.1 µM, first compound 10 µM
[13] = second compound 0.316 µM, first compound 0.0316 µM
[14] = second compound 0.316 µM, first compound 0.1 µM
[15] = second compound 0.316 µM, first compound 0.316 µM
[16] = second compound 0.316 µM, first compound 1 µM
[17] = second compound 0.316 µM, first compound 3.16 µM
[18] = second compound 0.316 µM, first compound 10 µM
[19] = second compound 1 µM, first compound 0.0316 µM
[20] = second compound 1 µM, first compound 0.1 µM
[21] = second compound 1 µM, first compound 0.316 µM
[22] = second compound 1 µM, first compound 1 µM
[23] = second compound 1 µM, first compound 3.16 µM
[24] = second compound 1 µM, first compound 10 µM
[25] = second compound 3.16 µM, first compound 0.0316 µM
[26] = second compound 3.16 µM, first compound 0.1 µM
[27] = second compound 3.16 µM, first compound 0.316 µM
[28] = second compound 3.16 µM, first compound 1 µM
[29] = second compound 3.16 µM, first compound 3.16 µM
[30] = second compound 3.16 µM, first compound 10 µM
[31] = second compound 10 µM, first compound 0.0316 µM
[32] = second compound 10 µM, first compound 0.1 µM
[33] = second compound 10 µM, first compound 0.316 µM
[34] = second compound 10 µM, first compound 1 µM
[35] = second compound 10 µM, first compound 3.16 µM
[36] = second compound 10 µM, first compound 10 µM
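Note: spheroids exposed to compounds for seven days before readout.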

C#Cc1c(F)ccc2cc(O)cc(-c3ncc4c(N5CC6CCC(C5)N6)nc(OCC56CCCN5CC(F)C6)nc4c3F)c12 (stereo not drawn) + COC1C(OC(N)=O)C(O)C(Oc2ccc3c(O)c(NC(=O)c4ccc(O)c(CC=C(C)C)c4)c(=O)oc3c2C)OC1(C)C
IC50 (second compound 0.0316 µM): > 10 µM
IC50 (second compound 0.1 µM): > 10 µM
IC50 (second compound 0.316 µM): > 10 µM
IC50 (second compound 1 µM): > 10 µM
IC50 (second compound 3.16 µM): > 10 µM
IC50 (second compound 10 µM): > 10 µM
viability, T/C [1]: 97.4%
viability, T/C [2]: 79.1%
viability, T/C [3]: 69.6%
viability, T/C [4]: 65.3%
viability, T/C [5]: 60.8%
viability, T/C [6]: 58.2%
viability, T/C [7]: 94.9%
viability, T/C [8]: 84.9%
viability, T/C [9]: 74.9%
viability, T/C [10]: 60.1%
viability, T/C [11]: 71.6%
viability, T/C [12]: 54.2%
viability, T/C [13]: 100%
viability, T/C [14]: 88.5%
viability, T/C [15]: 87.8%
viability, T/C [16]: 68%
viability, T/C [17]: 67.3%
viability, T/C [18]: 60.3%
viability, T/C [19]: 91.3%
viability, T/C [20]: 78.1%
viability, T/C [21]: 80.1%
viability, T/C [22]: 87%
viability, T/C [23]: 65.2%
viability, T/C [24]: 56.9%
viability, T/C [25]: 94.6%
viability, T/C [26]: 77.8%
viability, T/C [27]: 79.5%
viability, T/C [28]: 67.7%
viability, T/C [29]: 60.4%
viability, T/C [30]: 54.3%
viability, T/C [31]: 96.9%
viability, T/C [32]: 91.9%
viability, T/C [33]: 79.1%
viability, T/C [34]: 64%
viability, T/C [35]: 70.2%
viability, T/C [36]: 55.7%

CCc1cc2c(N3CCc4c(cc(Cn5ccnc5)cc4-c4cn(C)nc4C(F)(F)F)C3=O)cc(C)nc2c(OC)n1 + COC1C(OC(N)=O)C(O)C(Oc2ccc3c(O)c(NC(=O)c4ccc(O)c(CC=C(C)C)c4)c(=O)oc3c2C)OC1(C)C
IC50 (second compound 0.0316 µM): > 10 µM
IC50 (second compound 0.1 µM): > 10 µM
IC50 (second compound 0.316 µM): > 10 µM
IC50 (second compound 1 µM): > 10 µM
IC50 (second compound 3.16 µM): > 10 µM
IC50 (second compound 10 µM): > 10 µM
viability, T/C [1]: 112%
viability, T/C [2]: 101%
viability, T/C [3]: 114%
viability, T/C [4]: 108%
viability, T/C [5]: 134%
viability, T/C [6]: 148%
viability, T/C [7]: 105%
viability, T/C [8]: 102%
viability, T/C [9]: 93.8%
viability, T/C [10]: 121%
viability, T/C [11]: 134%
viability, T/C [12]: 157%
viability, T/C [13]: 85.9%
viability, T/C [14]: 94.2%
viability, T/C [15]: 118%
viability, T/C [16]: 107%
viability, T/C [17]: 125%
viability, T/C [18]: 163%
viability, T/C [19]: 75.3%
viability, T/C [20]: 92.8%
viability, T/C [21]: 102%
viability, T/C [22]: 115%
viability, T/C [23]: 145%
viability, T/C [24]: 128%
viability, T/C [25]: 106%
viability, T/C [26]: 95.7%
viability, T/C [27]: 108%
viability, T/C [28]: 113%
viability, T/C [29]: 126%
viability, T/C [30]: 147%
viability, T/C [31]: 98.6%
viability, T/C [32]: 83.8%
viability, T/C [33]: 82.7%
viability, T/C [34]: 120%
viability, T/C [35]: 119%
viability, T/C [36]: 154%

COc1cc2cc(C(=O)CCC(=O)O)sc2cc1OC + COC1C(OC(N)=O)C(O)C(Oc2ccc3c(O)c(NC(=O)c4ccc(O)c(CC=C(C)C)c4)c(=O)oc3c2C)OC1(C)C
IC50 (second compound 0.0316 µM): > 10 µM
IC50 (second compound 0.1 µM): > 10 µM
IC50 (second compound 0.316 µM): > 10 µM
IC50 (second compound 1 µM): > 10 µM
IC50 (second compound 3.16 µM): > 10 µM
IC50 (second compound 10 µM): > 10 µM
viability, T/C [1]: 99.4%
viability, T/C [2]: 95.9%
viability, T/C [3]: 114%
viability, T/C [4]: 101%
viability, T/C [5]: 95.4%
viability, T/C [6]: 82.4%
viability, T/C [7]: 69.1%
viability, T/C [8]: 90.1%
viability, T/C [9]: 96.8%
viability, T/C [10]: 120%
viability, T/C [11]: 93.8%
viability, T/C [12]: 93.3%
viability, T/C [13]: 97.7%
viability, T/C [14]: 91.6%
viability, T/C [15]: 92.4%
viability, T/C [16]: 99.2%
viability, T/C [17]: 91.5%
viability, T/C [18]: 87.6%
viability, T/C [19]: 100%
viability, T/C [20]: 96.4%
viability, T/C [21]: 97.8%
viability, T/C [22]: 111%
viability, T/C [23]: 93.2%
viability, T/C [24]: 93.4%
viability, T/C [25]: 99.5%
viability, T/C [26]: 90.2%
viability, T/C [27]: 95.6%
viability, T/C [28]: 112%
viability, T/C [29]: 90.7%
viability, T/C [30]: 90.1%
viability, T/C [31]: 114%
viability, T/C [32]: 90.6%
viability, T/C [33]: 96.5%
viability, T/C [34]: 98.5%
viability, T/C [35]: 120%
viability, T/C [36]: 90.2%

O=C(Nc1ccc(O)c(NS(=O)(=O)c2ccc(F)cc2)c1)c1ccc(-c2ccccc2)cc1 + COC1C(OC(N)=O)C(O)C(Oc2ccc3c(O)c(NC(=O)c4ccc(O)c(CC=C(C)C)c4)c(=O)oc3c2C)OC1(C)C
IC50 (second compound 0.0316 µM): > 10 µM
IC50 (second compound 0.1 µM): > 10 µM
IC50 (second compound 0.316 µM): > 10 µM
IC50 (second compound 1 µM): > 10 µM
IC50 (second compound 3.16 µM): > 10 µM
IC50 (second compound 10 µM): > 10 µM
viability, T/C [1]: 93.7%
viability, T/C [2]: 96.6%
viability, T/C [3]: 110%
viability, T/C [4]: 110%
viability, T/C [5]: 128%
viability, T/C [6]: 113%
viability, T/C [7]: 112%
viability, T/C [8]: 87.2%
viability, T/C [9]: 109%
viability, T/C [10]: 112%
viability, T/C [11]: 145%
viability, T/C [12]: 107%
viability, T/C [13]: 101%
viability, T/C [14]: 102%
viability, T/C [15]: 116%
viability, T/C [16]: 104%
viability, T/C [17]: 120%
viability, T/C [18]: 103%
viability, T/C [19]: 111%
viability, T/C [20]: 105%
viability, T/C [21]: 99.7%
viability, T/C [22]: 112%
viability, T/C [23]: 130%
viability, T/C [24]: 112%
viability, T/C [25]: 115%
viability, T/C [26]: 96.6%
viability, T/C [27]: 101%
viability, T/C [28]: 119%
viability, T/C [29]: 136%
viability, T/C [30]: 104%
viability, T/C [31]: 115%
viability, T/C [32]: 94.8%
viability, T/C [33]: 110%
viability, T/C [34]: 100%
viability, T/C [35]: 130%
viability, T/C [36]: 103%
